Reference: ChEMBL document CHEMBL1833893, “Synthesis and anticonvulsant activity of new 1-[2-oxo-2-(4-phenylpiperazin-1-yl)ethyl]pyrrolidine-2,5-diones” (Bioorg Med Chem Lett, 2011)
Calls of active or inactive are those of the source. The calls are words filed in the database; no cut-off is given here.

Tests used:
Mus musculus [1] = test: Anticonvulsant activity in ip dosed albino CF1 mouse assessed as protection against maximal electroshock-induced seizures after 4 hrs; format: functional; conditions: read-out: MED
Mus musculus [2] = test: Anticonvulsant activity in albino CF1 mouse assessed as protection against subcutaneous pentylenetetrazole-induced seizures at 300 mg/kg, ip after 4 hrs; format: functional, organism-based; set-up: dose 300 mg/kg
Mus musculus [3] = test: Neurotoxicity in albino CF1 mouse assessed as motor impairment at 300 mg/kg, ip after 4 hrs by rotarod test; format: toxicity, organism-based; set-up: dose 300 mg/kg, route intraperitoneal; conditions: in vivo
Mus musculus [4] = test: Neurotoxicity in albino CF1 mouse assessed as motor impairment at 300 mg/kg, ip after 0.5 hrs by rotarod test; format: toxicity, organism-based; set-up: dose 300 mg/kg, route intraperitoneal; conditions: in vivo
Mus musculus [5] = test: Anticonvulsant activity in ip dosed albino CF1 mouse assessed as protection against maximal electroshock-induced seizures after 0.5 hrs; format: functional; conditions: read-out: MED
Mus musculus [6] = test: Anticonvulsant activity in albino CF1 mouse assessed as protection against subcutaneous pentylenetetrazole-induced seizures at 300 mg/kg, ip after 0.5 hrs; format: functional, organism-based; set-up: dose 300 mg/kg
Mus musculus [7] = test: Neurotoxicity in ip dosed albino CF1 mouse assessed as minimum dose required to cause motor impairment after 0.5 hrs by rotarod test; format: toxicity, organism-based; conditions: in vivo
Mus musculus [8] = test: Anticonvulsant activity in albino CF1 mouse assessed as protection against maximal electroshock-induced seizures at 300 mg/kg, ip after 4 hrs; format: functional, organism-based; set-up: dose 300 mg/kg
Mus musculus [9] = test: Anticonvulsant activity in albino CF1 mouse assessed as protection against electrically-induced seizure at 100 mg/kg, ip after 0.25 hrs by 6Hz psychomotor seizure test; format: functional
Rattus norvegicus [10] = test: Anticonvulsant activity in Sprague-Dawley rat assessed as protection against maximal electroshock-induced seizures at 30 mg/kg, po after 2 hrs; format: functional
Mus musculus [11] = test: Anticonvulsant activity in albino CF1 mouse assessed as protection against electrically-induced seizure at 100 mg/kg, ip after 1 hr by 6Hz psychomotor seizure test; format: functional
Mus musculus [12] = test: Neurotoxicity in ip dosed albino CF1 mouse assessed as minimum dose required to cause motor impairment after 4 hrs by rotarod test; format: toxicity, organism-based; conditions: in vivo
Rattus norvegicus [13] = test: Anticonvulsant activity in Sprague-Dawley rat assessed as protection against maximal electroshock-induced seizures at 30 mg/kg, po after 0.5 hrs; format: functional
Rattus norvegicus [14] = test: Anticonvulsant activity in Sprague-Dawley rat assessed as protection against maximal electroshock-induced seizures at 30 mg/kg, po after 1 hr; format: functional
Rattus norvegicus [15] = test: Anticonvulsant activity in Sprague-Dawley rat assessed as protection against maximal electroshock-induced seizures at 30 mg/kg, po after 4 hrs; format: functional
Mus musculus [16] = test: Anticonvulsant activity in albino CF1 mouse assessed as protection against electrically-induced seizure at 100 mg/kg, ip after 0.5 hrs by 6Hz psychomotor seizure test; format: functional
Mus musculus [17] = test: Anticonvulsant activity in albino CF1 mouse assessed as protection against electrically-induced seizure at 100 mg/kg, ip after 2 hrs by 6Hz psychomotor seizure test; format: functional
Mus musculus [18] = test: Anticonvulsant activity in ip dosed albino CF1 mouse assessed as protection against subcutaneous pentylenetetrazole-induced seizures after 0.5 hrs; format: functional; conditions: albino CF1, 0.5 h, read-out: MED
Rattus norvegicus [19] = test: Anticonvulsant activity in Sprague-Dawley rat assessed as protection against maximal electroshock-induced seizures at 30 mg/kg, po after 0.25 hrs; format: functional
Mus musculus [20] = test: Anticonvulsant activity in albino CF1 mouse assessed as protection against electrically-induced seizure at 100 mg/kg, ip after 4 hrs by 6Hz psychomotor seizure test; format: functional

SMILES | minimal effective dose (Mus musculus [1]) | Activity (Mus musculus [2]) | Activity (Mus musculus [3]) | Activity (Mus musculus [4]) | minimal effective dose (Mus musculus [5]) | Activity (Mus musculus [6]) | MTC (Mus musculus [7]) | Activity (Mus musculus [8]) | Activity (Rattus norvegicus [10]) | Activity (Mus musculus [11]; route intraperitoneal) | MTC (Mus musculus [12]) | Activity (Rattus norvegicus [13]) | Activity (Rattus norvegicus [14]) | Activity (Rattus norvegicus [15]) | other results
CCC1(CC)CC(=O)N(CC(=O)N2CCN(c3cccc(C(F)(F)F)c3)CC2)C1=O | 300 mg/kg | inactive | Non-toxic | Non-toxic | 300 mg/kg | inactive |  |  |  |  |  |  |  |  | 
CC1CC(=O)N(CC(=O)N2CCN(c3ccccc3F)CC2)C1=O (configuration not stated) | 300 mg/kg | inactive | Non-toxic |  | 300 mg/kg | inactive | 300 mg/kg |  |  |  |  |  |  |  | 
CC1(C)CC(=O)N(CC(=O)N2CCN(c3ccccc3Cl)CC2)C1=O |  | inactive | Non-toxic | Non-toxic | 300 mg/kg | inactive |  | inactive |  |  |  |  |  |  | 
CCC1(CC)CC(=O)N(CC(=O)N2CCN(c3ccccc3Cl)CC2)C1=O |  | inactive | Non-toxic |  | 300 mg/kg | inactive | 300 mg/kg | inactive |  |  |  |  |  |  | 
CC1CC(=O)N(CC(=O)N2CCN(c3ccc(Cl)cc3)CC2)C1=O (configuration not stated) | 100 mg/kg | inactive |  | Non-toxic | 300 mg/kg | inactive |  |  | 75% | 75% | 300 mg/kg | 75% | 75% | 75% | Activity (Mus musculus [9]; route intraperitoneal): 75%
O=C(CN1C(=O)CCC1=O)N1CCN(c2ccc(Cl)cc2)CC1 | 300 mg/kg | inactive |  | Non-toxic | 100 mg/kg |  |  |  |  |  | 300 mg/kg | inactive | inactive |  | Activity (Mus musculus [9]): inactive; Activity (Mus musculus [16]): inactive; Activity (Mus musculus [11]): inactive; Activity (Mus musculus [17]): inactive; minimal effective dose (Mus musculus [18]): 300 mg/kg; Activity (Rattus norvegicus [19]): inactive; Activity (Mus musculus [20]): inactive
O=C(CN1C(=O)CCC1=O)N1CCN(c2ccccc2)CC1 |  | inactive | Non-toxic | Non-toxic | 300 mg/kg | inactive |  | inactive |  |  |  |  |  |  | 
CC1(C)CC(=O)N(CC(=O)N2CCN(c3cccc(C(F)(F)F)c3)CC2)C1=O | 100 mg/kg | inactive | Non-toxic | Non-toxic | 100 mg/kg | inactive |  |  | inactive | 75% |  | inactive | inactive | inactive | Activity (Mus musculus [16]; route intraperitoneal): 75%
O=C1NC(=O)C(c2ccccc2)(c2ccccc2)N1 [PHENYTOIN] | 30 mg/kg | inactive |  |  | 30 mg/kg | inactive | 100 mg/kg |  | 75% |  | 100 mg/kg | 100% | 75% | 75% | 
CC1(C)CC(=O)N(CC(=O)N2CCN(c3ccc(F)cc3)CC2)C1=O | 100 mg/kg | inactive | Non-toxic |  | 100 mg/kg |  | 300 mg/kg |  | inactive | 75% |  | inactive | inactive | inactive | Activity (Mus musculus [9]; route intraperitoneal): 100%; Activity (Mus musculus [16]; route intraperitoneal): 100%; minimal effective dose (Mus musculus [18]): 300 mg/kg; Activity (Rattus norvegicus [19]): inactive
